Reference: the supplement of paper PMC8612539
In brackets after ≈: the same amount, converted by molar mass.

System: Escherichia coli
Assay: minimum inhibitory concentration (MIC)
Method: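 Broth microdilution MIC (Sensititre BOPO7F bovine plate, CLSI methods) of 19 antimicrobials against field isolates of P. multocida, M. haemolytica, H. somni (deep nasopharyngeal swabs) and E. coli, Enterococcus spp. (rectal swabs) from weaned dairy heifers. Incubation 16-24 h at 35 C. MIC is the lowest concentration preventing visible growth. Values with <= or > lie at the tested range limits. Trimethoprim-sulfamethoxazole is given as the trimethoprim component of a 1:19 mixture.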

CN(C)[C@@H]1C(O)=C(C(N)=O)C(=O)[C@@]2(O)C(O)=C3C(=O)c4c(O)cccc4[C@@](C)(O)[C@H]3C[C@@H]12 [Tetracycline]
Conditions | minimum inhibitory concentration [µg/mL]
isolate (source animal id): 8 | > 8
isolate (source animal id): 9 | > 8
isolate (source animal id): 10 | > 8
isolate (source animal id): 11 | 1 (≈ 2.25 µM)
isolate (source animal id): 12 | > 8
isolate (source animal id): 13 | > 8
isolate (source animal id): 14 | > 8
isolate (source animal id): 15 | > 8
isolate (source animal id): 16 | > 8
isolate (source animal id): 98 | > 8
isolate (source animal id): 99 | 2 (≈ 4.5 µM)
isolate (source animal id): 100 | > 8
isolate (source animal id): 101 | > 8
isolate (source animal id): 102 | > 8
isolate (source animal id): 103 | > 8
isolate (source animal id): 104 | > 8
isolate (source animal id): 105 | > 8
isolate (source animal id): 106 | > 8
isolate (source animal id): 107 | > 8
isolate (source animal id): 108 | > 8
isolate (source animal id): 109 | > 8
isolate (source animal id): 110 | > 8
isolate (source animal id): 111 | > 8
isolate (source animal id): 112 | > 8
isolate (source animal id): 113 | > 8
isolate (source animal id): 114 | > 8
isolate (source animal id): 115 | > 8
isolate (source animal id): 116 | > 8
isolate (source animal id): 117 | > 8
isolate (source animal id): 118 | > 8
isolate (source animal id): 119 | > 8
isolate (source animal id): 120 | > 8
isolate (source animal id): 121 | > 8
isolate (source animal id): 122 | > 8
isolate (source animal id): 123 | > 8
isolate (source animal id): 124 | > 8
isolate (source animal id): 125 | > 8
isolate (source animal id): 126 | > 8
isolate (source animal id): 127 | > 8
isolate (source animal id): 128 | > 8
isolate (source animal id): 129 | > 8
isolate (source animal id): 130 | > 8
isolate (source animal id): 131 | > 8
isolate (source animal id): 132 | > 8
isolate (source animal id): 133 | > 8
isolate (source animal id): 134 | > 8
isolate (source animal id): 135 | 2 (≈ 4.5 µM)
isolate (source animal id): 136 | > 8
isolate (source animal id): 137 | > 8
isolate (source animal id): 138 | > 8
isolate (source animal id): 139 | > 8
isolate (source animal id): 140 | 1 (≈ 2.25 µM)
isolate (source animal id): 141 | > 8
isolate (source animal id): 142 | > 8
isolate (source animal id): 143 | > 8
isolate (source animal id): 144 | > 8
isolate (source animal id): 145 | > 8
isolate (source animal id): 146 | > 8
isolate (source animal id): 147 | > 8
isolate (source animal id): 148 | > 8
isolate (source animal id): 149 | > 8
isolate (source animal id): 150 | > 8
isolate (source animal id): 151 | > 8
isolate (source animal id): 152 | > 8
isolate (source animal id): 153 | > 8
isolate (source animal id): 154 | > 8
isolate (source animal id): 155 | > 8
isolate (source animal id): 156 | > 8
isolate (source animal id): 157 | > 8
isolate (source animal id): 158 | > 8
isolate (source animal id): 159 | > 8
isolate (source animal id): 160 | > 8
isolate (source animal id): 161 | > 8
isolate (source animal id): 162 | > 8
isolate (source animal id): 163 | > 8
isolate (source animal id): 164 | > 8
isolate (source animal id): 165 | > 8
isolate (source animal id): 166 | > 8
isolate (source animal id): 167 | > 8
isolate (source animal id): 168 | 1 (≈ 2.25 µM)
isolate (source animal id): 169 | 1 (≈ 2.25 µM)
isolate (source animal id): 170 | > 8
isolate (source animal id): 171 | 1 (≈ 2.25 µM)
isolate (source animal id): 172 | 1 (≈ 2.25 µM)
isolate (source animal id): 173 | > 8
isolate (source animal id): 174 | > 8
isolate (source animal id): 175 | > 8
isolate (source animal id): 176 | > 8
isolate (source animal id): 177 | > 8
isolate (source animal id): 178 | > 8
isolate (source animal id): 179 | 1 (≈ 2.25 µM)
isolate (source animal id): 180 | > 8
isolate (source animal id): 181 | > 8
isolate (source animal id): 182 | > 8
isolate (source animal id): 183 | > 8
isolate (source animal id): 184 | > 8
isolate (source animal id): 185 | > 8
isolate (source animal id): 186 | 1 (≈ 2.25 µM)
isolate (source animal id): 187 | > 8
isolate (source animal id): 188 | > 8

CCCN1C[C@H](C)[C@@H](O)[C@](C)(O)[C@@H](CC)OC(=O)[C@H](C)[C@@H](O[C@H]2C[C@@](C)(OC)[C@@H](O)[C@H](C)O2)[C@H](C)[C@@H](O[C@@H]2O[C@H](C)C[C@H](N(C)C)[C@H]2O)[C@](C)(O)C[C@H]1C [Gamithromycin]
Conditions | minimum inhibitory concentration [µg/mL]
isolate (source animal id): 8 | 8 (≈ 10.3 µM)
isolate (source animal id): 9 | > 8
isolate (source animal id): 10 | 8 (≈ 10.3 µM)
isolate (source animal id): 11 | 8 (≈ 10.3 µM)
isolate (source animal id): 12 | 8 (≈ 10.3 µM)
isolate (source animal id): 13 | 8 (≈ 10.3 µM)
isolate (source animal id): 14 | > 8
isolate (source animal id): 15 | 4 (≈ 5.15 µM)
isolate (source animal id): 16 | 8 (≈ 10.3 µM)
isolate (source animal id): 98 | 8 (≈ 10.3 µM)
isolate (source animal id): 99 | 8 (≈ 10.3 µM)
isolate (source animal id): 100 | 4 (≈ 5.15 µM)
isolate (source animal id): 101 | 8 (≈ 10.3 µM)
isolate (source animal id): 102 | 8 (≈ 10.3 µM)
isolate (source animal id): 103 | 8 (≈ 10.3 µM)
isolate (source animal id): 104 | 8 (≈ 10.3 µM)
isolate (source animal id): 105 | 8 (≈ 10.3 µM)
isolate (source animal id): 106 | > 8
isolate (source animal id): 107 | 8 (≈ 10.3 µM)
isolate (source animal id): 108 | 8 (≈ 10.3 µM)
isolate (source animal id): 109 | 8 (≈ 10.3 µM)
isolate (source animal id): 110 | 4 (≈ 5.15 µM)
isolate (source animal id): 111 | 4 (≈ 5.15 µM)
isolate (source animal id): 112 | 8 (≈ 10.3 µM)
isolate (source animal id): 113 | 4 (≈ 5.15 µM)
isolate (source animal id): 114 | 8 (≈ 10.3 µM)
isolate (source animal id): 115 | > 8
isolate (source animal id): 116 | 4 (≈ 5.15 µM)
isolate (source animal id): 117 | > 8
isolate (source animal id): 118 | 8 (≈ 10.3 µM)
isolate (source animal id): 119 | > 8
isolate (source animal id): 120 | > 8
isolate (source animal id): 121 | 8 (≈ 10.3 µM)
isolate (source animal id): 122 | 8 (≈ 10.3 µM)
isolate (source animal id): 123 | 8 (≈ 10.3 µM)
isolate (source animal id): 124 | > 8
isolate (source animal id): 125 | ≤ 1
isolate (source animal id): 126 | > 8
isolate (source animal id): 127 | 8 (≈ 10.3 µM)
isolate (source animal id): 128 | 4 (≈ 5.15 µM)
isolate (source animal id): 129 | 4 (≈ 5.15 µM)
isolate (source animal id): 130 | 4 (≈ 5.15 µM)
isolate (source animal id): 131 | 4 (≈ 5.15 µM)
isolate (source animal id): 132 | 8 (≈ 10.3 µM)
isolate (source animal id): 133 | 8 (≈ 10.3 µM)
isolate (source animal id): 134 | 8 (≈ 10.3 µM)
isolate (source animal id): 135 | 8 (≈ 10.3 µM)
isolate (source animal id): 136 | 8 (≈ 10.3 µM)
isolate (source animal id): 137 | 8 (≈ 10.3 µM)
isolate (source animal id): 138 | > 8
isolate (source animal id): 139 | > 8
isolate (source animal id): 140 | 8 (≈ 10.3 µM)
isolate (source animal id): 141 | > 8
isolate (source animal id): 142 | 8 (≈ 10.3 µM)
isolate (source animal id): 143 | > 8
isolate (source animal id): 144 | > 8
isolate (source animal id): 145 | > 8
isolate (source animal id): 146 | 8 (≈ 10.3 µM)
isolate (source animal id): 147 | > 8
isolate (source animal id): 148 | 8 (≈ 10.3 µM)
isolate (source animal id): 149 | 8 (≈ 10.3 µM)
isolate (source animal id): 150 | > 8
isolate (source animal id): 151 | 8 (≈ 10.3 µM)
isolate (source animal id): 152 | 4 (≈ 5.15 µM)
isolate (source animal id): 153 | 8 (≈ 10.3 µM)
isolate (source animal id): 154 | 8 (≈ 10.3 µM)
isolate (source animal id): 155 | 4 (≈ 5.15 µM)
isolate (source animal id): 156 | > 8
isolate (source animal id): 157 | 8 (≈ 10.3 µM)
isolate (source animal id): 158 | 8 (≈ 10.3 µM)
isolate (source animal id): 159 | 4 (≈ 5.15 µM)
isolate (source animal id): 160 | > 8
isolate (source animal id): 161 | > 8
isolate (source animal id): 162 | 8 (≈ 10.3 µM)
isolate (source animal id): 163 | 8 (≈ 10.3 µM)
isolate (source animal id): 164 | 8 (≈ 10.3 µM)
isolate (source animal id): 165 | 8 (≈ 10.3 µM)
isolate (source animal id): 166 | 4 (≈ 5.15 µM)
isolate (source animal id): 167 | 8 (≈ 10.3 µM)
isolate (source animal id): 168 | 8 (≈ 10.3 µM)
isolate (source animal id): 169 | 8 (≈ 10.3 µM)
isolate (source animal id): 170 | 8 (≈ 10.3 µM)
isolate (source animal id): 171 | 8 (≈ 10.3 µM)
isolate (source animal id): 172 | 8 (≈ 10.3 µM)
isolate (source animal id): 173 | 4 (≈ 5.15 µM)
isolate (source animal id): 174 | 8 (≈ 10.3 µM)
isolate (source animal id): 175 | 8 (≈ 10.3 µM)
isolate (source animal id): 176 | 8 (≈ 10.3 µM)
isolate (source animal id): 177 | 8 (≈ 10.3 µM)
isolate (source animal id): 178 | 8 (≈ 10.3 µM)
isolate (source animal id): 179 | 8 (≈ 10.3 µM)
isolate (source animal id): 180 | 8 (≈ 10.3 µM)
isolate (source animal id): 181 | > 8
isolate (source animal id): 182 | 8 (≈ 10.3 µM)
isolate (source animal id): 183 | 8 (≈ 10.3 µM)
isolate (source animal id): 184 | 8 (≈ 10.3 µM)
isolate (source animal id): 185 | 8 (≈ 10.3 µM)
isolate (source animal id): 186 | 8 (≈ 10.3 µM)
isolate (source animal id): 187 | 4 (≈ 5.15 µM)
isolate (source animal id): 188 | 2 (≈ 2.57 µM)
